pEC50, pIC50: −log10 of the molar value. In brackets after ≈: the same amount, converted by molar mass.
Tests used:
[1] = target: T1, PBP3 from Acinetobacter baumannii (ATCC 19606) (Acinetobacter baumannii, UniProt A0ABX6CK25); assay: Bocillin-FL fluorescence polarization competition binding, A. baumannii PBP3; conditions: fluorescence polarization competition binding assay using Bocillin-FL; read-out: A. baumannii PBP3 Potency
T1 sequence (A0ABX6CK25 64-610): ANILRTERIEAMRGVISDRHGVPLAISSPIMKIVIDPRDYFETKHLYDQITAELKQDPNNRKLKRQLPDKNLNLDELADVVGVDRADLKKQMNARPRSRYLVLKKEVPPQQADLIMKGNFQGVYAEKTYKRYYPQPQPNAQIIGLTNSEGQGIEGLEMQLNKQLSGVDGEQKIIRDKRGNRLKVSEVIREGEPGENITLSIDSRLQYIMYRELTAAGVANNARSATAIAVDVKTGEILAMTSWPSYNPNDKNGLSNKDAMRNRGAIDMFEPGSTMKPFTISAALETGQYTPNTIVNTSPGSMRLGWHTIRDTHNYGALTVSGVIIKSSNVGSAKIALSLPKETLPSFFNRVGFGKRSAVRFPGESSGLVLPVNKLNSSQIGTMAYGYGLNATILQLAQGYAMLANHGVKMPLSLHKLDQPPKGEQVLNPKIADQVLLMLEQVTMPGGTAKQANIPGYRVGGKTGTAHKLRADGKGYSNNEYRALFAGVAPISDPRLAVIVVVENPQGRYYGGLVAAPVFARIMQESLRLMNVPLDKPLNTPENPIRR
How it was run: (§1)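 Purified PBP was preincubated with inhibitor (E. coli PBP3 1.5 μM, 30 min; P. aeruginosa PBP3 0.75 μM, A. baumannii PBP3 0.2 μM and PBP1a 1 μM, 15 min), then Bocillin-FL (0.1 μM; 0.05 μM for PBP1a) added and FP read up to 60 min. EC50 = 50% loss of bound probe.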

[2] = system: P. aeruginosa ATCC 27853; assay: microbe, parasite or virus in culture; type: cell-based; conditions: Pseudomonas aeruginosa, ATCC27853, read-out: Minimum inhibitory concentration, P. aeruginosa ATCC 27853
[3] = target: T2, PBP3 from Escherichia coli (K-12) (Escherichia coli, UniProt P0AD68); assay: Bocillin-FL fluorescence polarization competition binding, E. coli PBP3
T2 construct: made in house
T2 sequence (P0AD68 1-577): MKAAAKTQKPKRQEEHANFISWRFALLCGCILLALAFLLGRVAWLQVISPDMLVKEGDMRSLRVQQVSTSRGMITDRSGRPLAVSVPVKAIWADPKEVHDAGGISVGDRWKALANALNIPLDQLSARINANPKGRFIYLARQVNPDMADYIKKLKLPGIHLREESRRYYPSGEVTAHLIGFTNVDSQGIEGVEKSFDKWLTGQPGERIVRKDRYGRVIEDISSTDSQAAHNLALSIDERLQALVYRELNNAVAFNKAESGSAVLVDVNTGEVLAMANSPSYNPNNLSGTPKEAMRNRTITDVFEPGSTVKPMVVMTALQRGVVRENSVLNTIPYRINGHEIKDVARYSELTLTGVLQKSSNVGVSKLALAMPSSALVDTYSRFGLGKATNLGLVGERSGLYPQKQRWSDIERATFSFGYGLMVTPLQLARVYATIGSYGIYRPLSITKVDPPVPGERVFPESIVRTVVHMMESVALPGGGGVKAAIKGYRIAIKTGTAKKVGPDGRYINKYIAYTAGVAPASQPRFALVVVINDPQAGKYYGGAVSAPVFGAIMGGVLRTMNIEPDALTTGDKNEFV
How it was run: as §1

[4] = system: A. baumannii CDC-0036; assay: microbe, parasite or virus in culture; type: cell-based; conditions: Acinetobacter baumannii, CDC0036, read-out: MIC, A. baumannii CDC-0036
[5] = system: N. gonorrhoeae WHO G; assay: Liquid broth MIC in Fastidious broth; conditions: Neisseria gonorrhoeae, read-out: Minimum Inhibitory Concentration, WHO G
[6] = system: N. gonorrhoeae WHO M; assay: Liquid broth MIC in Fastidious broth; conditions: Neisseria gonorrhoeae, read-out: Minimum Inhibitory Concentration, WHO M
[7] = target: T3, PBP3 from Pseudomonas aeruginosa (PAO1) (Pseudomonas aeruginosa, UniProt G3XD46); assay: Bocillin-FL fluorescence polarization competition binding, P. aeruginosa PBP3; conditions: Binding affinity to P. aeruginosa PBP3; fluorescence polarization competition binding assay using Bocillin-FL; read-out: P. aeruginosa PBP3 Potency
T3 construct: made in house
T3 sequence (G3XD46 whole entry): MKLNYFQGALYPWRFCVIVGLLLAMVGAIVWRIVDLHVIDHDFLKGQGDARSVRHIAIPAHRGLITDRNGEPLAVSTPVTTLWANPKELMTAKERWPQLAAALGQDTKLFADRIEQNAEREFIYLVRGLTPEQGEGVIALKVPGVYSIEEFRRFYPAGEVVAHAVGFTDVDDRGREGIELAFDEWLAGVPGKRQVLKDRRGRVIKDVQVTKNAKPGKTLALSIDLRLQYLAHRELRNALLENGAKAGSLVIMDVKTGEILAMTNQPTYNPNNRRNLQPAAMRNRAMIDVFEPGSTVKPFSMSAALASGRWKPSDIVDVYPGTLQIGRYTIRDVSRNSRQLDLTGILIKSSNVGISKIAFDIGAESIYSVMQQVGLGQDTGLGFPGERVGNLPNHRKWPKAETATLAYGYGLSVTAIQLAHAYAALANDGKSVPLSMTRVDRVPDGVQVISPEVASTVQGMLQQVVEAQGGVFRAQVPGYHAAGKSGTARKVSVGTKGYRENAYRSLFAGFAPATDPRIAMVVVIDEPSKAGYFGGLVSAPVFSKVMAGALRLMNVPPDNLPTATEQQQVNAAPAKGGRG
How it was run: as §1

[8] = system: N. gonorrhoeae CDC-0197; assay: Liquid broth MIC in Fastidious broth; conditions: Neisseria gonorrhoeae, CDC0197, read-out: Minimum Inhibitory Concentration, CDC-0197
Procedure: ATCC 49226, FA1090, MS11, WHO G, WHO L, and WHO M produce wild type or wild-type like PBP2. WHO K, WHO X, WHO Z, WHO Q, and CDC-0197 produce mosaic PBP2. Liquid broth-based assays were used for antibacterial testing of PBP inhibitors in Neisseria gonorrhoeae. Briefly, cryo-preserved bacterial cultures of clinical strains were streaked for isolation on Chocolate Agar (72 g/L (2×) GC Agar Base (BD #228950) and 2% (2×) Hemoglobin was autoclaved at 121° C. for 20 minutes to sterilize. Once cooled to ˜50° C. the 2×GC Agar Base and 2× Hemoglobin solutions are combined and 1% IsoVitaleX Enrichment (BD #211876) was added to the solution). Strains were incubated at 36° C. and 5% CO2 to allow growth of colonies, 24 hours before inoculum preparation. 2-fold serial dilutions of test compounds were conducted in a 96 well plate with a final volume of 75 μL per well at 2-fold the final desired concentration in Fastidious broth (Remel #R07664). For preparation of assay inoculum, a direct suspension was prepared by aseptically swabbing 10-15 colonies from agar plates into culture tubes containing 2 mL of fresh sterile saline. After the dilution plates were set up, direct suspensions were then diluted in a cuvette containing sterile saline and the optical density was measured at 600 nm. Inocula were diluted such that 75 μL of this culture in Fastidious broth results in a starting bacterial concentration of 5×10^5 CFU/mL when added to the dilution plates. The plates were incubated for ˜24 hours at 36° C. and 5% CO2.

[9] = system: N. gonorrhoeae MS11; assay: Liquid broth MIC in Fastidious broth; conditions: Neisseria gonorrhoeae, MS11, read-out: Minimum Inhibitory Concentration, MS11

| SMILES | pIC50 [1] | MIC [2] | pEC50 [3] | MIC [4] | MIC [5] | MIC [6] | pIC50 [7] | MIC [8] | MIC [9] |
| --- | --- | --- | --- | --- | --- | --- | --- | --- | --- |
| O=C(NCCCN1CCN(C(=O)N[C@@H](C(=O)N[C@H]2Cc3ccc(F)c(C(=O)O)c3OB2O)c2cc(F)c(O)c(O)c2Cl)C(=O)C1=O)c1cccc(O)c1Cl [Example 303, (R)-3-((R)-2-(4-(3-(2-chloro-3-hydroxybenzamido)propyl)-2,3-dioxopiperazine-1-carboxamido)-2-(2-chloro-5-fluoro-3,4-dihydroxyphenyl)acetamido)-7-fluoro-2-hydroxy-3,4-dihydro-2H-benzo[e][1,2]oxaborinine-8-carboxylic acid] | > 5.00 | < 1 µg/mL | > 5.00 | < 1 µg/mL | 4 to 8 µg/mL (≈ 5.04 to 10.1 µM) | 4 to 8 µg/mL (≈ 5.04 to 10.1 µM) | > 5.00 | 16 to 32 µg/mL (≈ 20.1 to 40.3 µM) | 4 to 8 µg/mL (≈ 5.04 to 10.1 µM) |
| O=C(NCCCN1CCN(C(=O)NC(C(=O)N[C@H]2Cc3ccc(F)c(C(=O)O)c3OB2O)c2cc(F)c(O)c(O)c2Cl)C1=O)c1ccc(O)cc1 (stereo partly drawn) [Example 280, (3R)-3-(2-(2-chloro-5-fluoro-3,4-dihydroxyphenyl)-2-(3-(3-(4-hydroxybenzamido)propyl)-2-oxoimidazolidine-1-carboxamido)acetamido)-7-fluoro-2-hydroxy-3,4-dihydro-2H-benzo[e][1,2]oxaborinine-8-carboxylic acid] | > 5.00 | 2 to 4 µg/mL (≈ 2.73 to 5.47 µM) | 4.30 to 5.00 | 2 to 4 µg/mL (≈ 2.73 to 5.47 µM) | 16 to 32 µg/mL (≈ 21.9 to 43.7 µM) | 16 to 32 µg/mL (≈ 21.9 to 43.7 µM) | > 5.00 | > 64 µg/mL | 16 to 32 µg/mL (≈ 21.9 to 43.7 µM) |
